Experimental data as given in ChEMBL document CHEMBL3351680, “Structure-based design, synthesis and biological evaluation of novel β-secretase inhibitors containing a pyrazole or thiazole moiety as the P3 ligand” (Bioorg Med Chem Lett, 2015).

target: T1, Beta-secretase 2 (Homo sapiens, UniProt Q9Y5Z0); experiment: Inhibition of memapsin 1 (unknown origin)
T1 sequence (Q9Y5Z0 whole entry): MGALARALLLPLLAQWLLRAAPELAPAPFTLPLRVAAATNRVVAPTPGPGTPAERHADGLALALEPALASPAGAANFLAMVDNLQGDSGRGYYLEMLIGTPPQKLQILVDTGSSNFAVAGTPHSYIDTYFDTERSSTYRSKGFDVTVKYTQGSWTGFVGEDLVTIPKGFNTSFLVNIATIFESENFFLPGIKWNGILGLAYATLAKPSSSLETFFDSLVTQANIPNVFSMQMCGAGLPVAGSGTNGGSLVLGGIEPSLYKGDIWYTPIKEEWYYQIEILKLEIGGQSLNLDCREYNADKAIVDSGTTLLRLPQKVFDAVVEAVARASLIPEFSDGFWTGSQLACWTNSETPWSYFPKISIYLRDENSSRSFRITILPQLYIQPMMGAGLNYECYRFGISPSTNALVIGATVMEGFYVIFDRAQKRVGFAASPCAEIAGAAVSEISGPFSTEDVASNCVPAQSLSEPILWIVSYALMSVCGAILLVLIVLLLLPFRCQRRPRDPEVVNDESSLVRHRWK

SMILES	Ki
Cc1csc(C[C@H](C)C(=O)N[C@@H](CNC(=O)OC(C)(C)C)C(=O)N[C@@H](CC(C)C)[C@@H](O)C[C@@H](C)C(=O)N[C@H](C(=O)NCC(C)C)C(C)C)n1	71 nM

target: Cathepsin D (Homo sapiens, UniProt P07339); experiment: Inhibition of Cathepsin D (unknown origin)
Sequence (P07339 65-162 limits assumed): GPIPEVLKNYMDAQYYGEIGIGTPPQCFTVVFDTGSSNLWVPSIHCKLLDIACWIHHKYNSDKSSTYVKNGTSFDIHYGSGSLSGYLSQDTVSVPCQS
Sequence (P07339 169-412 limits assumed): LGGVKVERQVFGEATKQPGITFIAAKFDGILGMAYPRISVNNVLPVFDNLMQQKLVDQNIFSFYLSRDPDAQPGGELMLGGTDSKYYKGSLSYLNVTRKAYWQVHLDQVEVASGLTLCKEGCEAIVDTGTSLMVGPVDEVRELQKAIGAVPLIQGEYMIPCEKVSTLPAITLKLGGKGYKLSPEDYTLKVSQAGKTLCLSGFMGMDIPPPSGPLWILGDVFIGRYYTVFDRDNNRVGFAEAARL

SMILES	Ki
Cc1csc(C[C@H](C)C(=O)N[C@@H](CNC(=O)OC(C)(C)C)C(=O)N[C@@H](CC(C)C)[C@@H](O)C[C@@H](C)C(=O)N[C@H](C(=O)NCC(C)C)C(C)C)n1	1.25 nM

target: Beta-secretase 1 (Homo sapiens, UniProt P56817); experiment: Inhibition of recombinant BACE1 (unknown origin)
Sequence (P56817 whole entry): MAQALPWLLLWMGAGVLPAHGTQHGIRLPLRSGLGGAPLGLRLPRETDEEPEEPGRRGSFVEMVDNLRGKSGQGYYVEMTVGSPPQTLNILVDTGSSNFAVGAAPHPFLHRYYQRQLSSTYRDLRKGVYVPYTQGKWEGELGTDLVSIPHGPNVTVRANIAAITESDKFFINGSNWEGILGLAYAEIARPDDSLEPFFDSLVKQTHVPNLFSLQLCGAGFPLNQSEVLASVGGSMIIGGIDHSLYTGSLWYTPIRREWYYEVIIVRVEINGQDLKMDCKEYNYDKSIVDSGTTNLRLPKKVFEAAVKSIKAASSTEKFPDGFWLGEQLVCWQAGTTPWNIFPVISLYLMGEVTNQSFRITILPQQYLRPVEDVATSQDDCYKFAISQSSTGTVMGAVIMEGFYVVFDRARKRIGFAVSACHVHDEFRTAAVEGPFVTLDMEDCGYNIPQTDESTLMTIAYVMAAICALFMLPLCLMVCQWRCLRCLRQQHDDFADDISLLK

SMILES	Ki
Cc1csc(C[C@H](C)C(=O)N[C@@H](CNC(=O)OC(C)(C)C)C(=O)N[C@@H](CC(C)C)[C@@H](O)C[C@@H](C)C(=O)N[C@H](C(=O)NCC(C)C)C(C)C)n1	0.25 nM
CC[C@@H](Cn1nc(C)cc1C)C(=O)N[C@@H](CNC(=O)OC(C)(C)C)C(=O)N[C@@H](CC(C)C)[C@@H](O)C[C@@H](C)C(=O)N[C@H](C(=O)NCC(C)C)C(C)C	63.1 nM
Cc1cc(C)n(C[C@@H](C(=O)N[C@@H](CNC(=O)OC(C)(C)C)C(=O)N[C@@H](CC(C)C)[C@@H](O)C[C@@H](C)C(=O)N[C@H](C(=O)NCC(C)C)C(C)C)C(C)C)n1	471 nM
Cc1cc(C)n(C[C@H](CC(C)C)C(=O)N[C@@H](CNC(=O)OC(C)(C)C)C(=O)N[C@@H](CC(C)C)[C@@H](O)C[C@@H](C)C(=O)N[C@H](C(=O)NCC(C)C)C(C)C)n1	148 nM
Cc1ccn(C[C@H](C)C(=O)N[C@@H](CNC(=O)OC(C)(C)C)C(=O)N[C@@H](CC(C)C)[C@@H](O)C[C@@H](C)C(=O)N[C@H](C(=O)NCC(C)C)C(C)C)n1	201 nM
CSC[C@H](NC(=O)[C@@H](C)Cn1nc(C)cc1C)C(=O)N[C@@H](CC(C)C)[C@@H](O)C[C@@H](C)C(=O)N[C@H](C(=O)NCC(C)C)C(C)C	64.2 nM
Cc1cc(C)n(C[C@H](C)C(=O)N[C@@H](CS(C)(=O)=O)C(=O)N[C@@H](CC(C)C)[C@@H](O)C[C@@H](C)C(=O)N[C@H](C(=O)NCC(C)C)C(C)C)n1	192 nM
Cc1nc(C[C@H](C)C(=O)N[C@@H](CNC(=O)OC(C)(C)C)C(=O)N[C@@H](CC(C)C)[C@@H](O)C[C@@H](C)C(=O)N[C@H](C(=O)NCC(C)C)C(C)C)cs1	31.9 nM
CC[C@@H](Cc1csc(C)n1)C(=O)N[C@@H](CNC(=O)OC(C)(C)C)C(=O)N[C@@H](CC(C)C)[C@@H](O)C[C@@H](C)C(=O)N[C@H](C(=O)NCC(C)C)C(C)C	16.8 nM
CC[C@@H](Cc1nc(C)cs1)C(=O)N[C@@H](CNC(=O)OC(C)(C)C)C(=O)N[C@@H](CC(C)C)[C@@H](O)C[C@@H](C)C(=O)N[C@H](C(=O)NCC(C)C)C(C)C	10.8 nM
Cc1csc(C[C@@H](C(=O)N[C@@H](CNC(=O)OC(C)(C)C)C(=O)N[C@@H](CC(C)C)[C@@H](O)C[C@@H](C)C(=O)N[C@H](C(=O)NCC(C)C)C(C)C)C(C)C)n1	28.9 nM
